Test results reported in ChEMBL document CHEMBL4261540, “Approaches to selective fibroblast growth factor receptor 4 inhibition through targeting the ATP-pocket middle-hinge region” (Medchemcomm, 2017).
The source made the active and inactive calls. No cut-off for these calls is given here.

Legend:
[1] = target: Fibroblast growth factor receptor 2 (Homo sapiens, UniProt P21802); type: ADME
[2] = target: T1, MAP kinase-activated protein kinase 2 (Homo sapiens, UniProt P49137); test: Inhibition of human MK2 at 10 uM by [gamma33P]ATP assay
Target sequence in this assay (P49137 whole entry, looked up): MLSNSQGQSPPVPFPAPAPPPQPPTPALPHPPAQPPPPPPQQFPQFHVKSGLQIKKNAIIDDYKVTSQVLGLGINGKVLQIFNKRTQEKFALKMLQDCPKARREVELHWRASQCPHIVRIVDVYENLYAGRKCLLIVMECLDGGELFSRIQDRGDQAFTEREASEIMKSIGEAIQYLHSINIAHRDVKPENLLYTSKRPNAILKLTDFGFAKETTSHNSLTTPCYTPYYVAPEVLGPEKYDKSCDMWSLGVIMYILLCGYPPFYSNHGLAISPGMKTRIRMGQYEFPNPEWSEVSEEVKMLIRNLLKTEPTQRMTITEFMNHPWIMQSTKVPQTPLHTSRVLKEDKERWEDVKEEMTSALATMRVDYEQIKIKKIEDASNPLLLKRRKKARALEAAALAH

[3] = target: Fibroblast growth factor receptor 3 (Homo sapiens, UniProt P22607)
[4] = target: T1, MAP kinase-activated protein kinase 2; test: Inhibition of human MK2 by [gamma33P]ATP assay
Target sequence in this assay (P49137 whole entry): as the sequence (P49137 whole entry, looked up) above

[5] = target: Fibroblast growth factor receptor 1 (Homo sapiens, UniProt P11362)
[6] = target: T2, Fibroblast growth factor receptor 4 (Homo sapiens, UniProt P22455)
[7] = target: Fibroblast growth factor receptor 4 (Homo sapiens, UniProt P22455, C552A)
[8] = target: Fibroblast growth factor receptor 4 (Homo sapiens, UniProt P22455, C477A)
[9] = target: T2, Fibroblast growth factor receptor 4; remark: listed apart in the source

Chain of Fibroblast growth factor receptor 2 (P21802 whole entry): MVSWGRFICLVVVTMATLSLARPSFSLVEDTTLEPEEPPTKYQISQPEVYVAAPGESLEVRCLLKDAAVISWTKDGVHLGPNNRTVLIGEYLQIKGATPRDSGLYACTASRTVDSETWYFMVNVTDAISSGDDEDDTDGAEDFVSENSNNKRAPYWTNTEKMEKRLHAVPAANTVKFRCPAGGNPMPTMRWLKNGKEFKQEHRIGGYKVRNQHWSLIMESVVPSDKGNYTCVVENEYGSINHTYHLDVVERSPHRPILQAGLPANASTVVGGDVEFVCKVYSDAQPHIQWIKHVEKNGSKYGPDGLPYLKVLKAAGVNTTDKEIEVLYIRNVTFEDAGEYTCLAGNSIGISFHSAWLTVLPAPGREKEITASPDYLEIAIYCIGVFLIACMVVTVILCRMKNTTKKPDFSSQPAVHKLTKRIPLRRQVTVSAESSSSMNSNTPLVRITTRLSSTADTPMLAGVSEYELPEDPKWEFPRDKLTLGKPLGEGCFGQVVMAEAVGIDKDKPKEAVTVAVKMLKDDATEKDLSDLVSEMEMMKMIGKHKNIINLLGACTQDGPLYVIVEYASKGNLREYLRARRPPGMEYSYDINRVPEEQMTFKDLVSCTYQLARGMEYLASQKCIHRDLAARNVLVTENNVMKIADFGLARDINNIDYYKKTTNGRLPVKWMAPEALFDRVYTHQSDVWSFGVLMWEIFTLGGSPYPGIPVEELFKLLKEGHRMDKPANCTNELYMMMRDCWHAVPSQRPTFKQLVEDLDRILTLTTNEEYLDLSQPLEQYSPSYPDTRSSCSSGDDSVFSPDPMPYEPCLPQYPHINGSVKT
Chain of Fibroblast growth factor receptor 3 (P22607 whole entry): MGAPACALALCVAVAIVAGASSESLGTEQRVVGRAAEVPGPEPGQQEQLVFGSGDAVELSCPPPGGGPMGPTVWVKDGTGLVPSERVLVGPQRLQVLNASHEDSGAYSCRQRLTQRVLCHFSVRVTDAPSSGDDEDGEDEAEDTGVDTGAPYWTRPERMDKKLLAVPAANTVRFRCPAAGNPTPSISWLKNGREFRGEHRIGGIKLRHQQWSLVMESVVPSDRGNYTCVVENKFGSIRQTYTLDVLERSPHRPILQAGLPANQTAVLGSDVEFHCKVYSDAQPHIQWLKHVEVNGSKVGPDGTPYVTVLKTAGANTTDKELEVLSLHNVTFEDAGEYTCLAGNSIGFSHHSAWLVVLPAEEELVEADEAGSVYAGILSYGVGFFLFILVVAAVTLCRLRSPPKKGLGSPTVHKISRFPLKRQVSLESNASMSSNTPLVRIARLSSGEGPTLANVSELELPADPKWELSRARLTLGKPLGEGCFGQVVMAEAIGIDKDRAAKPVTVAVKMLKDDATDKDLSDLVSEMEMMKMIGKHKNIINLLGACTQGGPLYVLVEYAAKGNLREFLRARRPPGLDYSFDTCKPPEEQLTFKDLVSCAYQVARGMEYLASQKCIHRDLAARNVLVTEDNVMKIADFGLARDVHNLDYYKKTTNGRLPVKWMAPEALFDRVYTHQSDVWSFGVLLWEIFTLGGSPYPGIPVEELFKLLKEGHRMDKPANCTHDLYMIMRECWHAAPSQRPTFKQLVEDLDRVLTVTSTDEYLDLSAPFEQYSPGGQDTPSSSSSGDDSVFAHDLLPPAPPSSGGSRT
T2 sequence (P22455 whole entry): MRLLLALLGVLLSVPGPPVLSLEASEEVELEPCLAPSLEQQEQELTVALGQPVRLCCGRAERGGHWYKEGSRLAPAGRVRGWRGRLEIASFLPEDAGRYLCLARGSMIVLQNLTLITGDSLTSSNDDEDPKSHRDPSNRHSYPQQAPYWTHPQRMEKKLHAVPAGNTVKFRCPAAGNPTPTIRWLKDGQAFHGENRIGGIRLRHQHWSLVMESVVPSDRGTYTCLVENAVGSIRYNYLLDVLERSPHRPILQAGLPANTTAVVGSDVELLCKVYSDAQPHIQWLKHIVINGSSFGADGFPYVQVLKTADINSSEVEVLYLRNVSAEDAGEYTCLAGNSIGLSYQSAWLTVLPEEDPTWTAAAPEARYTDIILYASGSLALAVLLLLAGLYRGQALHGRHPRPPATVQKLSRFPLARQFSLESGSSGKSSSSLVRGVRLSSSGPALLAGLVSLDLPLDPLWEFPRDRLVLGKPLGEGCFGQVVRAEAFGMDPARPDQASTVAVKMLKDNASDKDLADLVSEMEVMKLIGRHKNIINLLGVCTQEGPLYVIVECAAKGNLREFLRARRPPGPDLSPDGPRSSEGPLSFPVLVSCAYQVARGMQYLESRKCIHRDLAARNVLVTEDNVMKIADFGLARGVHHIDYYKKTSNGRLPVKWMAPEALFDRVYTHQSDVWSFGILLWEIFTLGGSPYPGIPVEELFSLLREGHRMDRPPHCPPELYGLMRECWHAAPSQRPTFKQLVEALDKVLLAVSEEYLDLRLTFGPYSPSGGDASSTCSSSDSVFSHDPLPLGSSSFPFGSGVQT
Chain of Fibroblast growth factor receptor 1 (P11362 whole entry): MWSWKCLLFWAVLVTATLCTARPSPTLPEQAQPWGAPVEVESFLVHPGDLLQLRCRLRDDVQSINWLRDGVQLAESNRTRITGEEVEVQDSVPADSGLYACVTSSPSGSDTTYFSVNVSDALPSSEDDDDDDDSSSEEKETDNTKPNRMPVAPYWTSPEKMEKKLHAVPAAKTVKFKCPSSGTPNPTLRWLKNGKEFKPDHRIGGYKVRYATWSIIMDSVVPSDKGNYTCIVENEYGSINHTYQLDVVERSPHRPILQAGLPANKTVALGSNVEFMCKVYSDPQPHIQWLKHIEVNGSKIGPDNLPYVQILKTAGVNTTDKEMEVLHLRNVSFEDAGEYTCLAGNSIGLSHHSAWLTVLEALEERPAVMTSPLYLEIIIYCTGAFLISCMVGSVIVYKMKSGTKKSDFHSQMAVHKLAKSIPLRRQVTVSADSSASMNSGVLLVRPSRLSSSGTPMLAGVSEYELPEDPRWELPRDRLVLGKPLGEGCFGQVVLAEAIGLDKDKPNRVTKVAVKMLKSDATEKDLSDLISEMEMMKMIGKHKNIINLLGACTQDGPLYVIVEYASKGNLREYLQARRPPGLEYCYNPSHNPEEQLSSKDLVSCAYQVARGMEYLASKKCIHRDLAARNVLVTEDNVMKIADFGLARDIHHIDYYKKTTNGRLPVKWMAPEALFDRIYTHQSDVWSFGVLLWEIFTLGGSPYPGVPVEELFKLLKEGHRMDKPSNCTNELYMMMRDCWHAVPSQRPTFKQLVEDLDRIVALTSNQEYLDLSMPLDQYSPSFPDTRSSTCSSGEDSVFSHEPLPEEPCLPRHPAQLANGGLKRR
Chain of Fibroblast growth factor receptor 4 (Homo sapiens, UniProt P22455, C477A) (P22455 22-802 C477A limits assumed): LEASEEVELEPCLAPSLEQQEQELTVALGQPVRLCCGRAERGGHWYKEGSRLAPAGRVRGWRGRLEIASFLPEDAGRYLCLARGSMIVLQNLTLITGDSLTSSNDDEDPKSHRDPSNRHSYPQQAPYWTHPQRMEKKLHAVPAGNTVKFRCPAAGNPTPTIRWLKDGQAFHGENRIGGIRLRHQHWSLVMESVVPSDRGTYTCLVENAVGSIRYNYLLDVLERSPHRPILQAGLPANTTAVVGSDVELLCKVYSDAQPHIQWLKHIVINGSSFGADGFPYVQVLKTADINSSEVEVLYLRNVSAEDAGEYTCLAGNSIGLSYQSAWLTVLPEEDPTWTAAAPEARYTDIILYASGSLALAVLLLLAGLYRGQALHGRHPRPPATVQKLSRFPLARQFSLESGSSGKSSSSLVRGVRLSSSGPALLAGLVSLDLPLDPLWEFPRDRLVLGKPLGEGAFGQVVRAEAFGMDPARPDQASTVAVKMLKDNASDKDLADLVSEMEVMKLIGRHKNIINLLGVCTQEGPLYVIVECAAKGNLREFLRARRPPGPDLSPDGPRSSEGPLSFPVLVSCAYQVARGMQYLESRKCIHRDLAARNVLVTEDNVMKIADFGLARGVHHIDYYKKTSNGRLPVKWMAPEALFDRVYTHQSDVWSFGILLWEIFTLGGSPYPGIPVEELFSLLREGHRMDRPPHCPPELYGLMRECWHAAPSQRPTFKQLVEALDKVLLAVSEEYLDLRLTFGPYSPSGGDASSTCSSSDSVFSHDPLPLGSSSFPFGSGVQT
Chain of Fibroblast growth factor receptor 4 (Homo sapiens, UniProt P22455, C552A) (P22455 22-802 C552A limits assumed): as the sequence (P22455 22-802 C477A limits assumed) above, with A456C, C531A counted along it

SMILES	IC50 [1] [µM]	inhibition [2]	IC50 [3] [µM]	IC50 [4] [nM]	IC50 [5] [µM]	IC50 [6] [µM]	IC50 [7] [µM]	IC50 [8] [µM]	IC50 [9] [nM]
O=Cc1ccc2cccc(C(=O)Nc3ccc(C(F)(F)F)cn3)c2n1	> 10	Active	> 10	2300	> 10				
CC(C)COc1cc(N2CCC(N(C)C)CC2)ccc1Nc1ncc(C#N)c(N[C@H]2[C@@H](C(N)=O)[C@@H]3C=C[C@H]2C3)n1	0.363		3.5						
C=CC(=O)Nc1cccc(C)c1Nc1ncc2cc(-c3c(Cl)c(OC)cc(OC)c3Cl)ccc2n1	1.7		0.78		3.2				
O=C(Nc1ccc(C(F)(F)F)cn1)c1cccc2cccnc12						> 10	> 10	> 10	
CC(C)Oc1cc(N2CCC(N3CCN(C)CC3)CC2)ccc1Nc1ncc(Cl)c(Nc2ccccc2S(=O)(=O)C(C)C)n1	4.43		8		6.35				29
O=[N+]([O-])c1ccc(Cl)nc1Nc1ncc(C(F)(F)F)cc1Cl	> 10		> 10		> 10				
O=Cc1ccc2cccc(C(=O)Nc3ccc(C(F)(F)F)cc3)c2n1						> 10	> 10	> 10	
